Source: patent US20150018546A1, “HETEROCYCLIC COMPOUND HAVING ANTI-HIV ACTIVITY” (TOYAMA CHEMICAL CO., LTD., priority 2012, published 2015)
Structures can show the parent of a compound that is named as a salt.

Test system: HIV-1 (JRCSF)
Assay: Anti-HIV activity in MaRBLE cells infected with HIV-1 (JRCSF), luciferase readout
Type: cell-based
Conditions: Human immunodeficiency virus 1, 168 h, read-out: Anti-HIV activity IC50
Procedure, shortened: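 HPB-M(a)-derived MaRBLE cells carrying HIV-1 LTR-luciferase and CCR5, infected with HIV-1 JRCSF, 1×10^5 cells/well in RPMI1640/10% FCS, cultured 7 days at 37 °C. Luciferase read; proliferation % relative to compound-free wells minus uninfected background; IC50 by linear regression on log concentration.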

| Compound | IC50 [nM] |
| --- | --- |
| Cc1ncnc2c1c(NCCCN(C)C)cc(=O)n2O [Example 155, 5-((3-(dimethylamino)propyl)amino)-8-hydroxy-4-methylpyrido[2,3-d]pyrimidin-7(8H)-one hydrochloride] | 230 |

Same assay, conditions: Human immunodeficiency virus 1, 168 h; MaRBLE cells (human T lymphocyte-derived HPB-M(a)) infected with HIV-1 (JRCSF); 7 days culture; rate of viral proliferation by luciferase activity; read-out: Anti-HIV activity IC50

| Compound | IC50 [nM] |
| --- | --- |
| Cc1ncnc2c1c(NCc1cccc(CN(C)C)c1)cc(=O)n2O [Example 143, 5-((3-((dimethylamino)methyl)benzyl)amino)-8-hydroxy-4-methylpyrido[2,3-d]pyrimidin-7(8H)-one] | 120 |
| Cc1ncnc2c1c(NCc1ccc(OCCO)cc1)cc(=O)n2O [Example 144, 8-hydroxy-5-((4-(2-hydroxyethoxy)benzyl)amino)-4-methylpyrido[2,3-d]pyrimidin-7(8H)-one] | 90 |
| Cc1ncnc2c1c(NCc1ccc(NS(=O)(=O)c3ccccc3)cc1)cc(=O)n2O [Example 145, N-(4-(((8-hydroxy-4-methyl-7-oxo-7,8-dihydropyrido[2,3-d]pyrimidin-5-yl)amino)methyl)phenyl)benzenesulfonamide] | 490 |
| Cc1ncnc2c1c(NCc1cccnc1OCC(F)(F)F)cc(=O)n2O [Example 147, 8-hydroxy-4-methyl-5-(((2-(2,2,2-trifluoroethoxy)pyridin-3-yl)methyl)amino)pyrido[2,3-d]pyrimidin-7(8H)-one] | 83 |
| Cc1ncnc2c1c(NCc1ccc(C(F)(F)F)cc1)cc(=O)n2O [Example 148, 8-hydroxy-4-methyl-5-((4-(trifluoromethyl)benzyl)amino)pyrido[2,3-d]pyrimidin-7(8H)-one] | 71 |
| Cc1ncnc2c1c(NCc1ccccc1C(F)(F)F)cc(=O)n2O [Example 149, 8-hydroxy-4-methyl-5-((2-(trifluoromethyl)benzyl)amino)pyrido[2,3-d]pyrimidin-7(8H)-one] | 26 |
| Cc1ncnc2c1c(NCc1ccccn1)cc(=O)n2O [Example 150, 8-hydroxy-4-methyl-5-(((pyridin-2-yl)methyl)amino)pyrido[2,3-d]pyrimidin-7(8H)-one] | 100 |
| Cc1ncnc2c1c(NCc1cccc(F)c1)cc(=O)n2O [Example 151, 5-((3-fluorobenzyl)amino)-8-hydroxy-4-methylpyrido[2,3-d]pyrimidin-7(8H)-one] | 54 |
| Cc1ncnc2c1c(NCc1ccc(C(C)C)cc1)cc(=O)n2O [Example 152, 8-hydroxy-5-((4-isopropylbenzyl)amino)-4-methylpyrido[2,3-d]pyrimidin-7(8H)-one] | 95 |
| Cc1ncnc2c1c(NCc1ccco1)cc(=O)n2O [Example 153, 5-((2-furylmethyl)amino)-8-hydroxy-4-methylpyrido[2,3-d]pyrimidin-7(8H)-one] | 130 |
| Cc1ncnc2c1c(NCc1ncc[nH]1)cc(=O)n2O [Example 154, 8-hydroxy-5-(((1H-imidazol-2-yl)methyl)amino)-4-methylpyrido[2,3-d]pyrimidin-7(8H)-one] | 720 |
| Cc1ncnc2c1c(NCC1CCN(C)CC1)cc(=O)n2O [Example 156, 8-hydroxy-4-methyl-5-(((1-methylpiperidin-4-yl)methyl)amino)pyrido[2,3-d]pyrimidin-7(8H)-one] | 590 |

Results, then the molecule that gave them:

| IC50 [nM] | Compound |
| --- | --- |
| 44 | COc1ncccc1CNc1cc(=O)n(O)c2ncnc(C)c12 [Example 157, 8-hydroxy-5-(((2-methoxypyridin-3-yl)methyl)amino)-4-methylpyrido[2,3-d]pyrimidin-7(8H)-one] |
| 74 | COc1ccc(CNc2cc(=O)n(O)c3ncnc(C)c23)cn1 [Example 158, 8-hydroxy-5-(((2-methoxypyridin-5-yl)methyl)amino)-4-methylpyrido[2,3-d]pyrimidin-7(8H)-one] |
| 68 | Cc1ncnc2c1c(NCc1ccccc1OC(F)(F)F)cc(=O)n2O [Example 160, 8-hydroxy-4-methyl-5-((2-(trifluoromethoxy)benzyl)amino)pyrido[2,3-d]pyrimidin-7(8H)-one] |
| 180 | Cc1ncnc2c1c(NCCCc1cccnc1)cc(=O)n2O [Example 161, 8-hydroxy-4-methyl-5-((3-(pyridin-3-yl)propyl)amino)pyrido[2,3-d]pyrimidin-7(8H)-one] |
| 67 | Cc1ncnc2c1c(NCc1ccc(N)nc1)cc(=O)n2O [Example 162, 5-(((6-aminopyridin-3-yl)methyl)amino)-8-hydroxy-4-methylpyrido[2,3-d]pyrimidin-7(8H)-one] |
| 160 | Cc1ncnc2c1c(NC(C)c1ccccn1)cc(=O)n2O (centres unmarked) [Example 165, 8-hydroxy-4-methyl-5-((1-(pyridin-2-yl)ethyl)amino)pyrido[2,3-d]pyrimidin-7(8H)-one] |

Same assay, conditions: MaRBLE cells (human T lymphocyte-derived HPB-M(a)) infected with HIV-1 (JRCSF); 7 days culture; rate of viral proliferation by luciferase activity; read-out: Anti-HIV activity IC50

| Compound | IC50 [nM] |
| --- | --- |
| Cc1ncnc2c1c(NCc1ccc(Oc3ccccc3)nc1)cc(=O)n2O [Example 146, 8-hydroxy-4-methyl-5-(((6-phenoxypridin-3-yl)methyl)amino)pyrido[2,3-d]pyrimidin-7(8H)-one] | 100 |
